Assay results reported in PMC8538351 (Pharmaceuticals, 2021).
Where two headings read alike, the source gives them in different places.

Columns and labels:
SARS-CoV-2 [1] = test: Combination treatment of PheoA with RMDV in Vero E6 cells, immunofluorescence microscopy; type: cell-based; conditions: Severe acute respiratory syndrome coronavirus 2, Vero C1008, 24 h, read-out: EC50 of individual treatment
Protocol: Thus, combination treatments were performed with increasing doses of PheoA and RMDV. Drugs were mixed in different proportions, combined with infectious SARS-CoV-2 (MOI = 0.01) and the mixtures were used to inoculate Vero E6 cells. Twenty-four hours later, cells were fixed and processed to determine the infection efficiency as using immunofluorescence microscopy. […] Increasing concentrations of PheoA improved RMDV efficacy and viceversa.
Synergy analysis was carried out in the web-based platform Synergy Finder (https://synergyfinder.fimm.fi/, accessed on 25 September 2021).

SARS-CoV-2 [2] = test: Extracellular viral RNA load by RT-qPCR in A549-ACE2 cells; type: cell-based; conditions: A549-ACE2, 48 h
SARS-CoV-2 [3] = conditions: monolayers protected down to this concentration; read-out: reported EC50; cited from earlier work
SARS-CoV-2 [4] = test: Time-of-addition experiment in Vero E6 cells (single-cycle infection); type: cell-based; conditions: for efficacy when added during the virus entry phase (in words): versus maintained at all times
Protocol: Next, antiviral efficacy of PheoA was compared when PheoA was (i) present at all times, (ii) added only during virus inoculation, or (iii) added only after virions had effectively penetrated the cells in single-cycle infection experiments ([…]).
(§1) All the infection experiments were performed by mixing the virus and compound dilutions 1:1 (v/v) before addition to the target cells. In the time-of-addition experiments, Vero E6 cultures were inoculated (MOI from 0.5–1) for 1 h in the presence or absence of the compounds at 37 °C. Subsequently, virus-compound mixtures were left at all times, or removed and replaced with fresh 2% FBS complete media containing or not the tested compounds (see experimental scheme in Figure 7 for details). Cells were fixed 6 h post-inoculation.

SARS-CoV-2 [5] = test: Viral RNA load by RT-qPCR in Vero E6 cells; type: cell-based; conditions: 25 µM, Vero E6, MOI 0.001, 72 h post infection
SARS-CoV-2 [6] = test: Antiviral activity by immunofluorescence microscopy in Vero E6 cells; type: cell-based; conditions: for EC50: Severe acute respiratory syndrome coronavirus 2, Vero C1008, 48 h
Protocol: (§2) Vero E6, A549-ACE2 or Calu3 were seeded onto 96-well plates as described above and infected in the presence of the indicated compound dose (MOI = 0.01). Twenty-four hours post infection (48 h for Calu3 cells), cells were fixed for 20 min at room temperature with a 4% formaldehyde solution in PBS, washed twice with PBS and incubated with incubation buffer (3% BSA; 0.3% Triton X100 in PBS) for 1 h. A monoclonal antibody against the N protein was diluted in the incubation buffer (1:2000, v/v; Genetex HL344) and incubated with the cells for 1 h; after this time, cells were washed with PBS and subsequently incubated with a 1:500 (v/v) dilution of a goat anti-rabbit conjugated to Alexa 488 (Invitrogen-Carlsbad, Carlsbad, CA, USA). Nuclei were stained with DAPI (Life Technologies, Budapest, Hungary) as recommended by the manufacturer during the secondary antibody incubation. Cells were washed with PBS and imaged using an automated multimode reader Spark Cyto (TECAN-Grödig, Austria).
as §1
(§3) Descriptive statistics were calculated using Microsoft Excel. One-way ANOVA and post hoc tests were calculated using IBM SPSS Software Package (version 26). EC50 and EC90 values were obtained employing the PROBIT regression method using IBM SPSS vs26, except for values in Table 1 that were calculated by graphic interpolation of individual curves.

Vero E6 cells = test: Cytotoxicity by MTT assay in Vero E6 cells; type: cell-based, Green Monkey; conditions: Vero E6, MTT, parallel cultures
Protocol: (§4) Cell monolayers were seeded in 96-well plates. The day after cells were treated with a wide range of compound concentrations and forty-eight hours later they were subjected to an MTT assays using standard procedures. The CC50 values were graphically interpolated from dose–response curves obtained with three biological replicates.

SARS-CoV-2 [7] = test: Antiviral activity by immunofluorescence microscopy in A549-ACE2 cells; type: cell-based; conditions: A549-ACE2, MOI 0.01, 48 h; for EC50: Severe acute respiratory syndrome coronavirus 2, A549-ACE2, 48 h
Protocol: as §2, §1, §3

SARS-CoV-2 [8] = test: Antiviral activity by immunofluorescence microscopy in Calu3 cells; type: cell-based; conditions: Calu3, MOI 0.005, 48 h; for EC50: Severe acute respiratory syndrome coronavirus 2, Calu-3, 48 h
Protocol: as §2, §1, §3

[9] = system: retroviral vectors pseudotyped with VSV glycoprotein (VSVpp); type: cell-based
[10] = system: retroviral vectors pseudotyped with SARS-CoV-2 Spike protein (SARS2pp); type: cell-based
Huh7 cells = conditions: Huh7, 48 h
SARS-CoV-2 [11] = test: Cytopathic effect protection assay (crystal violet) in Vero E6 cells; type: cell-based; conditions: Vero E6, 72 h
Protocol: In order to explore for the presence of anti-SARS-CoV-2 metabolites in M. polymorpha, we prepared crude extracts of two different M. polymorpha subspecies (subsp. ruderalis from Japan and subsp. polymorpha, from Spain). The anti-SARS-CoV-2 activity of the resulting crude extracts was tested in Vero E6 cell monolayers infected with the SARS-CoV-2 NL2020 strain (Figure 1A). Infection was carried out at a multiplicity of infection (MOI) of 0.001 for 72 h. In the absence of antiviral activity, SARS-CoV-2 infection triggers cell death of Vero E6 cells and results in loss of cell biomass in the well, which is readily visualized as a strong reduction in crystal violet staining (DMSO, Figure 1A). […] Thus, protective activity may be used as a rapid qualitative surrogate assay to facilitate identification of substances with antiviral potential.
Vero E6 or Huh7-ACE2 cell monolayers were inoculated (MOI = 0.001) in the presence of a wide range of two-fold dilutions of the crude, or partially purified extracts, or pure compounds and incubated for 72 h. Cytopathic effect and lack thereof was visualized by crystal violet staining, as previously described. Untreated and solvent-treated cells were included in each plate as controls. […] A minimum virus dose (10 infectious units/well; MOI 0.001 in 1e4 cells/well) capable of producing overt cytopathic effect was used. […]

[12] = system: Vero E6, A549-ACE2 and Calu3 cells; test: Cytotoxicity by MTT assay, summary for Vero E6, A549-ACE2 and Calu3; type: cell-based; conditions: all three models, assayed doses
Protocol: (§5) PheoA antiviral activity was further confirmed by immunofluorescence microscopy–to estimate virus propagation–and an MTT assay–to evaluate compound cytotoxicity. […] This dataset was used to determine effective concentrations (EC50 and EC90) and cytotoxicity indexes. The estimated EC50 and EC90 values were around 50 nM and 100 nM, respectively, with a wide therapeutic window in all tested cell lines (Table 1)
as §4

SARS-CoV-2 virions = test: Virucidal assay: pre-incubation of virions, residual infectivity titer by TCID50; type: cell-based; conditions: for virus infectivity after pre-incubation (in words): 340 nM
[13] = system: vesicular stomatitis virus (VSV-GFP); test: microbe, parasite or virus in culture; type: cell-based; conditions: A549-ACE2
[14] = system: vesicular stomatitis virus (VSV-GFP); test: microbe, parasite or virus in culture; type: cell-based; conditions: Huh-7
West Nile Virus = test: microbe, parasite or virus in culture; type: cell-based; conditions: Huh-7, 48 h
hCoV-229E = test: microbe, parasite or virus in culture; type: cell-based; conditions: Human coronavirus 229E, Huh-7, 48 h
SARS-CoV-2 [15] = test: Antiviral activity by immunofluorescence microscopy, summary for Vero E6, A549-ACE2 and Calu3; type: cell-based; conditions: Severe acute respiratory syndrome coronavirus 2, all tested cell lines
Protocol: as §5, §2

[16] = Cytotoxicity by MTT assay in Calu3 cells; type: cell-based; conditions: human
Protocol: as §4

[17] = Cytotoxicity by MTT assay in A549-ACE2 cells; type: cell-based; conditions: human
Protocol: as §4

[18] = Cytotoxicity by MTT assay in Vero E6 cells; type: cell-based, Green Monkey; conditions: green monkey, Vero E6 cells; Vero-E6, MTT, 48 h
Protocol: as §4

HCV = test: microbe, parasite or virus in culture; type: cell-based; conditions: Hepatitis C virus, Huh-7, 48 h
SARS-CoV-2 [19] = test: Cytopathic effect protection assay (crystal violet) in Huh7-ACE2 cells; type: cell-based; conditions: Huh7-ACE2, 72 h
Protocol: To confirm the antiviral potential of PheoA, a commercially available PheoA stock solution was serially diluted and mixed with a virus stock to inoculate Vero E6 and Huh7-ACE2 cells (human hepatoma cells expressing ACE2). Cells were fixed 72 h post-inoculation and stained with crystal violet to visualize the integrity of the cell monolayer.
Vero E6 or Huh7-ACE2 cell monolayers were inoculated (MOI = 0.001) in the presence of a wide range of two-fold dilutions of the crude, or partially purified extracts, or pure compounds and incubated for 72 h. Cytopathic effect and lack thereof was visualized by crystal violet staining, as previously described. Untreated and solvent-treated cells were included in each plate as controls. […] A minimum virus dose (10 infectious units/well; MOI 0.001 in 1e4 cells/well) capable of producing overt cytopathic effect was used. Lower virus doses produce visible plaques and complete absence of CPE coincides with the expected endpoint dilution, around 8-fold lower dilutions.

[20] = Vero E6, MOI 0.005, 48 h, PROBIT regression
[21] = mean ± SD n = 3, graphic interpolation

CCC(CC)COC(=O)[C@H](C)N[P@](=O)(OC[C@H]1O[C@@](C#N)(c2ccc3c(N)ncnn23)[C@H](O)[C@@H]1O)Oc1ccccc1 [RMDV, Remdesivir]
EC50 (SARS-CoV-2 [1]): 2000 nM
reduction of extracellular viral RNA (SARS-CoV-2 [2]; 5 µM): two orders of magnitude
EC50 (SARS-CoV-2 [3]): 1500 nM
antiviral activity when maintained at all times (in words) (SARS-CoV-2 [4]; Vero E6, MOI 5, 6 h): highly effective at reducing infection efficiency
viral RNA load (SARS-CoV-2 [5]): undetectable

C=Cc1c(C)c2cc3nc(c4c5[nH]c(cc6nc(cc1[nH]2)C(C)=C6CC)c(C)c5C(=O)C4)[C@@H](CCC(=O)O)[C@@H]3C [pPheoA, pyropheophorbide a]
EC50 (SARS-CoV-2 [6]; [20]): 185 nM
cytotoxicity (in words) (Vero E6 cells): absence of measurable cytotoxicity

C=Cc1c(C)c2cc3nc(c4c5[nH]c(cc6nc(cc1[nH]2)C(C)=C6CC)c(C)c5C(=O)[C@@H]4C(=O)OC)[C@@H](CCC(=O)O)[C@@H]3C [Semi-synthetic PheoA, Pheophorbide a]
EC50 (SARS-CoV-2 [6]; [20]): 51 nM
EC50 (SARS-CoV-2 [7]; PROBIT regression): 74 nM
EC50 (SARS-CoV-2 [8]; PROBIT regression): 38 nM

Cc1ccc(NC(=O)c2ccc(CN3CCN(C)CC3)cc2)cc1Nc1nccc(-c2cccnc2)n1 [imatinib, Imatinib]
entry inhibition (in words) ([9]; 15 µM): not VSVpp entry
efficacy when added after virion internalization (in words) (SARS-CoV-2 [4]; 15 µM, Vero E6, MOI 5, 6 h): greatly lost efficacy
antiviral activity when maintained at all times (in words) (SARS-CoV-2 [4]; Vero E6, MOI 5, 6 h): expected antiviral activity
efficacy when added during the virus entry phase (in words) (SARS-CoV-2 [4]; Vero E6, MOI 5, 6 h): comparable efficacy
entry inhibition (in words) ([10]; 15 µM): selectively inhibited SARS2pp

C=Cc1c(C)c2cc3nc(c4c5[nH]c(cc6nc(cc1[nH]2)C(C)=C6CC)c(C)c5C(=O)[C@@H]4C(=O)OC)[C@@H](CCC(=O)O)[C@@H]3C [PheoA, Pheophorbide a]
EC50 (SARS-CoV-2 [1]): 40 nM
cytotoxicity (in words) (Huh7 cells): no cytotoxicity was observed
concentration with consistent protective capacity (SARS-CoV-2 [11]): above 65 nM
maximum reduction of infection efficiency [9]: ≤ 40%
cytotoxicity (in words) [12]: no cytotoxicity was observed
virus infectivity after pre-incubation (in words) (SARS-CoV-2 virions; 30 min): reduced partially
virus infectivity after pre-incubation (in words) (SARS-CoV-2 virions; 60 min): below detection limits
virus infectivity after pre-incubation (in words) (SARS-CoV-2 virions; up to 15 min, room temperature): did not have any significant impact on virus infectivity
dose giving statistically significant reduction in remaining virus infectivity (SARS-CoV-2 virions; 30 min pre-incubation, 10^5 TCID50/mL, room temperature): above 67 nM
viral RNA accumulation (in words) (SARS-CoV-2 [2]; increasing concentrations): reduced viral RNA accumulation in a dose-dependent manner
EC50 [13]: 578 nM
EC50 [14]: 506 nM
antiviral activity when maintained at all times (in words) (SARS-CoV-2 [4]; Vero E6, MOI 5, 6 h): expected antiviral activity
efficacy when added during the virus entry phase (in words) (SARS-CoV-2 [4]; Vero E6, MOI 5, 6 h): nearly identical
efficacy when added after virion internalization (SARS-CoV-2 [4]; Vero E6, MOI 5, fixed 6 h post-inoculation): ca. 6 % of the maximum efficacy
maximum reduction of infection efficiency ([10]; maximum dose 675 nM, 48 h): ≤ 40%
EC50 (West Nile Virus): 64 nM
EC50 (hCoV-229E): 128 nM
EC50 (SARS-CoV-2 [15]; read-out: estimated EC50): ~50 nM
EC90 (SARS-CoV-2 [15]; read-out: estimated EC90): ~100 nM
EC50 (SARS-CoV-2 [6]; Vero-E6, MOI 0.005, 48 h, mean ± SD n = 3, graphic interpolation): 54 ± 13 nM
EC90 (SARS-CoV-2 [6]; Severe acute respiratory syndrome coronavirus 2, Vero C1008, Vero-E6, MOI 0.005, 48 h, mean ± SD n = 3): 106 ± 16 nM
CC50 at 48 h [16]: > 8420 nM
CC50 at 48 h [17]: 2600 ± 500 nM
CC50 at 48 h [18]: > 8420 nM
EC50 (SARS-CoV-2 [7]; [21]): 62 ± 25 nM
EC90 (SARS-CoV-2 [7]; Severe acute respiratory syndrome coronavirus 2, mean ± SD n = 3): 201 ± 84 nM
EC50 (HCV): 300 nM
EC50 (SARS-CoV-2 [8]; [21]): 35 ± 20 nM
EC90 (SARS-CoV-2 [8]; Severe acute respiratory syndrome coronavirus 2, Calu-3, mean ± SD n = 3): 98 ± 8 nM
concentration with consistent protective capacity (SARS-CoV-2 [19]): above 65 nM
